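Method: 48-hour compound exposure of cells in 96-well plates, five concentrations, linear interpolation of endpoints. Abbreviation: GI50, concentration required for 50% inhibition of growth. At the TGI there is no net growth.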
Assays:
Experiment in all cases: inhibition of tumour cell growth, NCI panel, 48 h
[1] = tested on: NCI-H522 lung
[2] = tested on: KM12 colon
[3] = tested on: T-47D breast
[4] = tested on: COLO 205 colon
[5] = tested on: SF-539 CNS
[6] = tested on: UACC-62 melanoma
[7] = tested on: OVCAR-8 ovarian
[8] = tested on: MALME-3M melanoma
[9] = tested on: SK-OV-3 ovarian
[10] = tested on: HT29 colon

Row | Compound | TGI [1] [µM] | GI50 [2] [µM] | TGI [2] [µM] | GI50 [3] [µM] | TGI [3] [µM] | GI50 [4] [µM] | TGI [4] [µM] | GI50 [5] [µM] | TGI [5] [µM] | GI50 [6] [nM] | TGI [6] [µM] | GI50 [7] [µM] | TGI [7] [µM] | GI50 [8] [nM] | TGI [8] [µM] | GI50 [9] [µM] | TGI [9] [µM] | TGI [10] [µM] | GI50 [1] [nM] | GI50 [10] [nM]
1 | O=C(/C=C/c1cc2ccccc2[nH]c1=O)/C=C/c1cc2ccccc2[nH]c1=O | > 47 | 4.32 | 8.59 | 11.6 | > 100 | 10.2 | > 59.7 | 9.13 | > 75.9 | 16900 | 97.8 | 9.84 | > 72.8 | > 59600 | > 100 | 31.4 | > 100 |  |  | 
2 | Cc1[nH]c2ccccc2c1C(=O)CC1(O)C(=O)Nc2c(Cl)cc(Cl)cc21 (centres undefined) | 32.9 |  | > 100 |  |  |  | 61.7 |  | 61.7 |  |  |  | 70.4 |  | 36.1 |  | > 100 | > 100 |  | 
3 | COc1cc2nc(N3CCCC3)nc(NCCc3ccccc3)c2cc1OC | 4.54 | 1.96 | 3.74 | 1.94 | 4.41 |  |  | 1.78 | 3.21 | 1650 | 3.06 | 2.14 | 6.05 | 1900 | 3.38 | 1.93 | 3.56 | 4.19 | 1990 | 1810
4 | CN(N=O)C(=O)ON1C(=O)CCC1=O | > 100 |  | > 100 |  |  |  |  |  | > 100 |  | > 100 |  | > 100 |  | > 100 |  | > 100 | > 100 |  | 
5 | O=C1C(=C([O-])c2ccccc2)C(=O)c2ccccc21.O=C1C(=C([O-])c2ccccc2)C(=O)c2ccccc21.[Fe+2] | > 100 | 55.1 | > 100 |  |  | 38.2 | > 100 | > 100 | > 100 |  |  | 72.4 | > 100 | > 100000 | > 100 | > 100 | > 100 | > 100 | > 100000 | > 100000
6 | COC(=O)C1CC2CC(=NNC(N)=O)CC2C1 (centres undefined) | > 100 |  | > 100 |  |  |  | > 100 |  | > 100 |  | > 100 |  | > 100 |  | > 100 |  | > 100 | > 100 |  | 
7 | CCOC(=O)C1=C(C)N(c2ccc(Cl)cc2)[C@]2(C#N)C(O)=C(Cl)C(Cl)=C(O)[C@]12C#N | > 100 | 47.9 | > 100 | 16.9 | 81 | 59.6 | > 100 | 8.61 | 96.8 |  |  | > 100 | > 100 | > 100000 | > 100 | 69.6 | > 100 | > 100 | 56500 | 51900
8 | C1CCC([PH+](C2CCCCC2)C2CCCCC2[PH+](C2CCCCC2)C2CCCCC2)CC1.[Au].[CH-]1CCCCC1CC1CCCC[N-]1 (centres undefined) | 1.56 |  |  |  |  | 0.262 | 0.696 | 0.355 | 1.41 | 249 |  | 0.264 | > 100 | 192 | 0.739 | 0.355 | 1.36 | 1.98 | 290 | 342

Reference: PubChem BioAssay (NCI)
